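The compound was tested at five concentrations on cells cultured in 96-well plates, with a 48-hour exposure period. GI50: concentration for 50% inhibition of growth.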 Activity calls are given as the source filed them. Cut-off read from the data, not from the text of the source: active = GI50 up to about 1.1 µM and inactive = higher.
Experiments:
Experiment in all cases: NCI anticancer screen, dose series, 48 h
786-0 = system: 786-0
CCRF-CEM = system: CCRF-CEM
COLO 205 = system: COLO 205
EKVX = system: EKVX
HCC 2998 = system: HCC 2998
HL-60 = system: HL-60
HOP-62 = system: HOP-62
LXFL 529 = system: LXFL 529
M14 = system: M14
M19-MEL = system: M19-MEL
Malme-3M = system: Malme-3M
NCI-H23 = system: NCI-H23
NCI-H460 = system: NCI-H460
OVCAR-4 = system: OVCAR-4
OVCAR-5 = system: OVCAR-5
PC-3 = system: PC-3
RXF 393 = system: RXF 393
SF-268 = system: SF-268
SF-295 = system: SF-295
SR = system: SR

| SMILES | GI50 (786-0) | GI50 (CCRF-CEM) | GI50 (COLO 205) | GI50 (EKVX) | GI50 (HCC 2998) | GI50 (HL-60) | GI50 (HOP-62) | GI50 (LXFL 529) | GI50 (M14) | GI50 (M19-MEL) | GI50 (Malme-3M) | GI50 (NCI-H23) | GI50 (NCI-H460) | GI50 (OVCAR-4) | GI50 (OVCAR-5) | GI50 (PC-3) | GI50 (RXF 393) | GI50 (SF-268) | GI50 (SF-295) | GI50 (SR) |
| --- | --- | --- | --- | --- | --- | --- | --- | --- | --- | --- | --- | --- | --- | --- | --- | --- | --- | --- | --- | --- |
| COc1ccc(/N=C\c2ccc(N(CCC#N)CCC#N)cc2)cc1 | 52.2 µM (inactive) | 48.1 µM (inactive) | 44.2 µM (inactive) | > 100 µM (inactive) | 38.8 µM (inactive) | 22.3 µM (inactive) | > 56.2 µM (inactive) | 7.11 µM (inactive) | 28.1 µM (inactive) | 34.1 µM (inactive) | > 84.9 µM (inactive) | > 100 µM (inactive) | 43.1 µM (inactive) | > 86.1 µM (inactive) | 55.5 µM (inactive) | 47 µM (inactive) | > 78.5 µM (inactive) | 53.2 µM (inactive) | 54.1 µM (inactive) | 90.8 µM (inactive) |
| O=C1CCC(C(=O)O)C2=C1CCCC2 (configuration not stated) | > 28.6 µM (inactive) | > 100 µM (inactive) | > 100 µM (inactive) | > 100 µM (inactive) | > 100 µM (inactive) | > 100 µM (inactive) | > 16.4 µM (inactive) | > 100 µM (inactive) | > 100 µM (inactive) | > 100 µM (inactive) | > 100 µM (inactive) | > 15.5 µM (inactive) |  | > 100 µM (inactive) | > 21.5 µM (inactive) | > 100 µM (inactive) | > 100 µM (inactive) | > 100 µM (inactive) | > 36.1 µM (inactive) | > 100 µM (inactive) |
| CC1=C(C(=O)Nc2ccccc2)C(c2cccc3ccccc23)C(C(=O)Nc2ccccc2)=C(C)N1 | 22.4 µM (inactive) | 26.7 µM (inactive) | 13.4 µM (inactive) | 11.8 µM (inactive) | 20.4 µM (inactive) | 17.1 µM (inactive) | 18.7 µM (inactive) | 15.9 µM (inactive) | 17.7 µM (inactive) | 19 µM (inactive) | 18.8 µM (inactive) | 21.7 µM (inactive) |  | > 10 µM (inactive) | 23 µM (inactive) |  | 14.4 µM (inactive) | 21.5 µM (inactive) | 17.5 µM (inactive) | 3.11 µM (inactive) |
| O=S1(=O)OCCOS(=O)(=O)C1(Br)Cc1ccccc1 | > 100 µM (inactive) | > 100 µM (inactive) | > 100 µM (inactive) | > 100 µM (inactive) | > 100 µM (inactive) | > 100 µM (inactive) | > 100 µM (inactive) | > 100 µM (inactive) | > 100 µM (inactive) | > 100 µM (inactive) | > 100 µM (inactive) | > 100 µM (inactive) | > 100 µM (inactive) | > 100 µM (inactive) | > 100 µM (inactive) |  | > 100 µM (inactive) | > 100 µM (inactive) | > 100 µM (inactive) | > 100 µM (inactive) |
| COc1ccc(OC)c(/C(C)=N/NC(N)=S)c1 | > 100 µM (inactive) | > 100 µM (inactive) | > 100 µM (inactive) | > 100 µM (inactive) | > 100 µM (inactive) | > 100 µM (inactive) | > 100 µM (inactive) | > 100 µM (inactive) | > 100 µM (inactive) | > 100 µM (inactive) | > 100 µM (inactive) | > 100 µM (inactive) | > 100 µM (inactive) | > 100 µM (inactive) | > 100 µM (inactive) |  | > 100 µM (inactive) | > 100 µM (inactive) | > 100 µM (inactive) | > 100 µM (inactive) |
| COC1=CC(=O)c2c(O)c3c(c(O)c2C1=O)C[C@](C)(O)C[C@@H]3O | 7.76 µM (inactive) | 5.7 µM (inactive) | 1.77 µM (inactive) | 8.04 µM (inactive) | 3.67 µM (inactive) | 1.62 µM (inactive) | 8.45 µM (inactive) | 3.81 µM (inactive) | 2.6 µM (inactive) | 0.296 µM (active) | 1.03 µM (active) | 2.43 µM (inactive) | 1.65 µM (inactive) | 3.72 µM (inactive) | 12.7 µM (inactive) | 3.4 µM (inactive) | 5.3 µM (inactive) | 5.25 µM (inactive) | 3.51 µM (inactive) | 2.92 µM (inactive) |
| COc1ccc(-c2cc(=O)c3cc(O)ccc3o2)c(OC)c1OC | 29 µM (inactive) | 4.73 µM (inactive) | 75.2 µM (inactive) | 12.2 µM (inactive) | 35.6 µM (inactive) | 15.7 µM (inactive) | 42.7 µM (inactive) | 30.6 µM (inactive) | 37.9 µM (inactive) | 45.3 µM (inactive) | 66.5 µM (inactive) | 36.8 µM (inactive) |  | 27.2 µM (inactive) | 20.2 µM (inactive) |  | 28.2 µM (inactive) | 24.8 µM (inactive) | 24.7 µM (inactive) | 12.7 µM (inactive) |
| CCC1C(C)c2c([nH]c3ccccc23)C2C(=O)N(c3ccccc3)C(=O)C21 (configuration not stated) | 16.9 µM (inactive) | 18 µM (inactive) | 16.1 µM (inactive) | 14 µM (inactive) | 15.5 µM (inactive) | 11.1 µM (inactive) |  | 19.6 µM (inactive) | 17.8 µM (inactive) | 15.8 µM (inactive) | 16.6 µM (inactive) | 18.6 µM (inactive) | 14.3 µM (inactive) | 13.4 µM (inactive) |  |  | 12.7 µM (inactive) | 20 µM (inactive) | 15.1 µM (inactive) | 8.41 µM (inactive) |
| CC(C)c1cc(C(C)C)c(S(=O)(=O)N=[N+]=[N-])c(C(C)C)c1 | > 100 µM (inactive) | 34.9 µM (inactive) | > 100 µM (inactive) |  | > 100 µM (inactive) | 22.9 µM (inactive) | > 100 µM (inactive) | > 100 µM (inactive) | > 100 µM (inactive) | 34.9 µM (inactive) | > 100 µM (inactive) | > 100 µM (inactive) | > 100 µM (inactive) | 81.8 µM (inactive) | > 100 µM (inactive) |  | 68.4 µM (inactive) | 67.3 µM (inactive) |  | 31.6 µM (inactive) |

Reference: ChEMBL document CHEMBL1201862, “PubChem BioAssay data set” (2004)
